Assay results: patent US4880007A, “Contrast agent for NMR scanning” (Amersham International PLC, priority 1985, dated 1989)

Key:
[1] = Binding of ligands to hydroxy apatite, ^31 P NMR study
Procedure: (§1) 1 ml of hydroxy apatite solution 250 mg/ml in water was used for all the binding assays to described.
The solid from 1 ml of hydroxy apatite solution was isolated by centrifugation and the supernatant removed. 0.41 ml of a 0.1M solution of ligand at pH 7.5±0.1 were than added and the solid resuspended. The solid was once more spun down and the supernatant analysed by ^31 P NMR. This enabled the amount of bound phosphonate to be analysed.

[2] = Binding of chromium complexes to hydroxy apatite, by T1 relaxation measurement; conditions: 0.4 ml of 50 mM metal complex; HAP 250 mg/ml
Procedure: as §1
The procedure above was followed but this time 0.4 ml of 50 mM metal complex solution was added and the solid resuspended. The supernatant was analysed by T1 using T1 relaxation measurements and the amount bound to hydroxy apatite calculated.

[3] = ^153 Gd biodistribution, IV study in rats; assay type: in vivo, male rats; conditions: for effect of added Ca^2+ or dimethylglucamine on bone uptake: Ca^2+ and dimethylglucamine added separately to aqueous solutions; for Bladder & Urine / Blood / Bone / Carcass / Injection Site / Kidneys / Liver & Spleen / Lung / Muscle / Ratio Bone/Blood / Ratio Bone/Liver & Spleen / Ratio Bone/Muscle / Stomach & Gut / usefulness as bone scanning / bone-seeking agent: rat, IV, two hours post injection
Source text: This example uses ^153 Gd to compare the biodistribution properties of various complexes in rats.
Using ^153 Gd, a comparison was made of certain properties of aqueous "solutions" of
The biodistribution data there reported were obtained by means of an IV study in male rats which were sacrified two hours post injection. % activity per organ is given, together with ratios of bone to organ.
It is known that Ca^2+ can bind to di- and poly-phosphonates, and that this is one reason why these materials are toxic. It is also known that dimethylglucamine can be used to solubilize complexes of this kind.

[4] = Solubility / precipitation of Gd complexes; assay type: physicochemical
Procedure: Equal volumes of 1 mM methylene diphosphonic acid and 0.5 mM Gd^3+ were used to prepare a complex designated Gd.MDP.
Equal volumes of 10 mM ethane-1-hydroxy-1,1-diphosphonic acid and 5 mM Gd^3+ were used to prepare a complex designated Gd.EHDP.

[5] = ligand 0.1M, 0.41 ml, pH 7.5±0.1, HAP 250 mg/ml, ^31 P NMR

Compound: O=C(O)CCCCCN(CP(=O)(O)O)CP(=O)(O)O [AHADMP, 6-amino hexanoic acid dimethylene phosphonate]
- % Bound to HAP [1, 5]: 89.7%

Compound: O=P(O)(O)CN(CCO)CP(=O)(O)O.O=P(O)(O)CN(CCO)CP(=O)(O)O.[Cr] [Cr(AEDMP)2]
- % Bound [2]: 96%

Compound: O=C(O)CCCN(CP(=O)(O)O)CP(=O)(O)O [GABADMP, Gamma amino butyric acid dimethylene phosphonate]
- % Bound to HAP [1, 5]: 77.8%

Compound: O=C(O)CN(CP(=O)(O)O)CP(=O)(O)O.O=C(O)CN(CP(=O)(O)O)CP(=O)(O)O.[Cr] [Cr(GDMP)2]
- % Bound [2]: 80%

Compound: O=P(O)(O)CN(CCN(CP(=O)(O)O)CP(=O)(O)O)CP(=O)(O)O.[Gd] [Gd.EDTMP]
- effect of added Ca^2+ or dimethylglucamine on bone uptake [3]: neither addition had a significant effect
- Bladder & Urine [3]: 45.8 % activity per organ
- Blood [3]: 0.6 % activity per organ
- Bone [3]: 45.2 % activity per organ
- Carcass [3]: 3.5 % activity per organ
- Injection Site [3]: 2.1 % activity per organ
- Kidneys [3]: 0.4 % activity per organ
- Liver & Spleen [3]: 1.4 % activity per organ
- Lung [3]: 0.1 % activity per organ
- Muscle [3]: 1.1 % activity per organ
- Ratio Bone/Blood [3]: 173.0
- Ratio Bone/Liver & Spleen [3]: 35.2
- Ratio Bone/Muscle [3]: 491.2
- Stomach & Gut [3]: 1.9 % activity per organ
- usefulness as bone scanning / bone-seeking agent [3]: good bone-seeking agent

Compound: O=C(O)CN(CP(=O)(O)O)CP(=O)(O)O [GDMP, Glycine dimethylene phosphonate]
- % Bound to HAP ([1]; pH 7.5): 88.2%

Compound: O=P(O)(O)CN(Cc1ccc(CN(CP(=O)(O)O)CP(=O)(O)O)cc1)CP(=O)(O)O [PXDTMP, Para-xylene diamine tetramethylene phosphonate]
- % Bound to HAP [1, 5]: 88.0%

Compound: CC(O)(P(=O)(O)O)P(=O)(O)O.[Gd] [Gd.EHDP]
- effect of added Ca^2+ or dimethylglucamine on bone uptake [3]: neither addition had a significant effect
- Bladder & Urine [3]: 24.0 % activity per organ
- Blood [3]: 21.45 % activity per organ
- Bone [3]: 22.64 % activity per organ
- Carcass [3]: 0.01 % activity per organ
- Injection Site [3]: 2.91 % activity per organ
- Kidneys [3]: 1.05 % activity per organ
- Liver & Spleen [3]: 11.29 % activity per organ
- Lung [3]: 1.55 % activity per organ
- Muscle [3]: 13.8 % activity per organ
- Ratio Bone/Blood [3]: 1.24
- Ratio Bone/Liver & Spleen [3]: 2.04
- Ratio Bone/Muscle [3]: 14.07
- Stomach & Gut [3]: 4.21 % activity per organ
- usefulness as bone scanning / bone-seeking agent [3]: not useful as bone scanning agents
- pH needed to avoid precipitation ([4]; equal volumes 10 mM ligand and 5 mM Gd^3+): above 7

Compound: O=P(O)(O)CN(Cc1cccc(CN(CP(=O)(O)O)CP(=O)(O)O)c1)CP(=O)(O)O.[Cr] [CrMXDTMP]
- % Bound [2]: 96%

Compound: O=P(O)(O)CN(Cc1cccc(CN(CP(=O)(O)O)CP(=O)(O)O)c1)CP(=O)(O)O [MXDTMP, Meta-xylene diamine tetramethylene phosphonate]
- % Bound to HAP [1, 5]: 84.1%

Compound: O=P(O)(O)CP(=O)(O)O.[Gd] [Gd.MDP]
- Bladder & Urine [3]: 1.0 % activity per organ
- Blood [3]: 0.1 % activity per organ
- Bone [3]: 3.1 % activity per organ
- Carcass [3]: 0.7 % activity per organ
- Injection Site [3]: 0.5 % activity per organ
- Kidneys [3]: 0.3 % activity per organ
- Liver & Spleen [3]: 93.9 % activity per organ
- Lung [3]: 0.4 % activity per organ
- Muscle [3]: 0.3 % activity per organ
- Ratio Bone/Blood [3]: 33.2
- Ratio Bone/Liver & Spleen [3]: 0.0
- Ratio Bone/Muscle [3]: 80
- Stomach & Gut [3]: 0.0 % activity per organ
- usefulness as bone scanning / bone-seeking agent [3]: not useful as bone scanning agents
- solubility ([4]; around physiological pH's): poor solubility properties

Compound: O=C(O)CCCCCN(CP(=O)(O)O)CP(=O)(O)O.O=C(O)CCCCCN(CP(=O)(O)O)CP(=O)(O)O.[Cr] [Cr(AHADMP)2]
- % Bound [2]: 96%

Compound: [153Gd+3].[Cl-].[Cl-].[Cl-] [^153 Gd.Cl3]
- Bladder & Urine [3]: 12.5 % activity per organ
- Blood [3]: 3.7 % activity per organ
- Bone [3]: 38.6 % activity per organ
- Carcass [3]: 1.8 % activity per organ
- Injection Site [3]: 3.4 % activity per organ
- Kidneys [3]: 2.5 % activity per organ
- Liver & Spleen [3]: 32.5 % activity per organ
- Lung [3]: 0.6 % activity per organ
- Muscle [3]: 4.0 % activity per organ
- Ratio Bone/Blood [3]: 12.2
- Ratio Bone/Liver & Spleen [3]: 1.1
- Ratio Bone/Muscle [3]: 83
- Stomach & Gut [3]: 3.9 % activity per organ

Compound: O=C(O)CCCN(CP(=O)(O)O)CP(=O)(O)O.O=C(O)CCCN(CP(=O)(O)O)CP(=O)(O)O.[Cr] [Cr(GABADMP)2]
- % Bound [2]: 90%

Compound: O=P(O)(O)CN(CCO)CP(=O)(O)O [AEDMP, Amino ethanol dimethylene phosphonate]
- % Bound to HAP [1, 5]: 50.9%
